Laboratory results: PMC10704857 (Journal of medicinal chemistry, 2021)

Assays:
[1] = target: RTA depurination of yeast ribosomes (Ricinus communis, UniProt P02879); assay type: biochemical
[2] = tested on: Stx2a holotoxin in Vero cells; assay type: cell-based
cisplatin toxicity = assay type: cell-based

## Cc1ccccc1-c1ccc(C(=O)O)s1 [RU-NT-70, 5-(o-Tolyl)thiophene-2-carboxylic Acid]
[1]
  fold improved IC50 relative to CC10501: 10 fold

## Cc1cccc(C)c1-c1ccc(C(=O)O)s1 [RU-NT-93, 5-(2,6-Dimethylphenyl)thiophene-2-carboxylic Acid]
[2]
  inhibition of depurination by Stx2a: did not protect
Cisplatin toxicity
  effect on toxicity of cisplatin: did not alter

## CCc1ccccc1-c1ccc(C(=O)O)s1 [RU-NT-102, 5-(2-Ethylphenyl)thiophene-2-carboxylic Acid]
[1]
  fold improved IC50 relative to CC10501: 12 fold
[2]
  inhibition of depurination by Stx2a: did not protect
Cisplatin toxicity
  effect on toxicity of cisplatin: did not alter

## O=C(O)c1ccc(-c2cccc3c2OCC3)s1 [RU-NT-105, 5-(2,3-Dihydrobenzofuran-7-yl)thiophene-2-carboxylic Acid]
[1]
  protection of yeast ribosomes from depurination: not active
